Entries after “also recorded” stand apart in the source; their conditions may differ. Residues, ends and D or L forms follow the SMILES beside them.
System: patients with at least one eye with dry AMD and GA
Test: Phase 2 randomized, placebo-controlled, double-masked trial of elamipretide (NCT03891875)
Type: in vivo, human
Experimental: Study design. In this Phase 2, randomized, placebo-controlled, double-masked, multicenter, safety and efficacy trial (ClinicalTrials.gov identifier NCT03891875), patients with at least one eye with dry AMD and GA were included. Visit 1 (screening visit) was performed no more than 14 days before the baseline visit (visit 2, day 1) (FIG. 1). Eligible patients returned for the baseline visit, at which time they were randomized (interactive response system) in a 2:1 ratio to receive either elamipretide 40 mg or placebo administered with a pen injector delivery system as a single daily self-administered subcutaneous injection. This dose was chosen based on the systemic exposure and safety profiles of elamipretide in an earlier trial (Allingham 2022; Mettu 2022). Patients were treated for 48 weeks, with assessments at day 1 and weeks 4, 8, 12, 24, 36, and 48 (visits 2 to 8) plus a final safety follow-up visit 4 weeks after the last day of study treatment (week 52; visit 9). Patient diaries and vial counts were used and reviewed to verify compliance.
Patients—Key inclusion criteria. The original protocol specified that adults≥55 years of age with one eye with dry AMD and GA were eligible for study entry. However, a subsequent amendment to the protocol limited inclusion to patients with noncentral GA. Noncentral GA and area was determined primarily by fundus autofluorescence (FAF) and all noncentral GA lesions were required to be ≥150 μm from foveal center with preserved outer retinal structural details, as confirmed by the central reading center (BIRC, Boston MA). Noncentral GA was required to be ≥0.05 mm^2 and ≤10.16 mm^2 in size, and reside completely within the FAF 30- or 35-degree image. […] The fellow eye was allowed to have AMD with or without GA, MNV, central GA, or no pathology.
Patients—Key exclusion criteria. Key exclusion criteria for study eye included absence of observable hyper-FAF at the margins of the GA (only for lesions 0.25 mm^2), atrophic retinal disease of causality other than AMD including myopia-related maculopathy and monogenetic macular dystrophies including pattern dystrophy and adult-onset Stargardt disease. Presence or diagnosis of exudative AMD or MNV, presence of retinal vein occlusion or vitreous hemorrhage, history of retinal detachment or macular hole, presence of an epiretinal membrane that causes distortion of the retinal contour, vitreomacular traction, or advanced glaucoma in the study eye were also not allowed.
Study objectives and endpoints. The primary efficacy endpoints were changes from baseline in LL BCVA and in square root converted GA area as measured by OCT. Secondary efficacy endpoints included changes in ellipsoid zone integrity, categorical changes from baseline in LL-BCVA, changes from baseline in LL reading acuity (LLRA), BCVA, and GA area as measured by FAF. Additional predefined endpoints included change in center 1-mm and 2-mm mean EZ-RPE thickness, National Eye Institute Visual Function Questionnaire (VFQ-39) score, RA at standard light, visual function by the Low-Luminance Questionnaire (LLQ). For efficacy endpoints, the unit of analysis was study eye; in cases where both eyes are eligible for analysis, the study eye was the eye with the worse LL BCVA as determined at baseline (right eye was the study eye for equal LL BCVA). Ellipsoid zone integrity was measured as previously described on OCT utilizing a machine learning enhanced multi-layer segmentation platform that provided panmacular assessment of the EZ and RPE location (Sirici, et al., Ophthamol Surg Lasers Imaging Retina, 2022; Itoh, et al, Br J Ophthamol, 2016).
The primary safety objective was to evaluate the safety/tolerability of elamipretide. […]

[1] = LS mean change from baseline to week 48, 40 mg SC once daily

## Cc1cc(O)cc(C)c1C[C@H](NC(=O)[C@H](N)CCCNC(=N)N)C(=O)N[C@@H](CCCCN)C(=O)N[C@@H](Cc1ccccc1)C(N)=O [elamipretide, H-D-Arg-2′,6′Dmt-Lys-Phe-NH2] (HELM PEPTIDE1{[dR].[Cc1cc(O)cc(C)c1C[C@H](N[*:1])C(=O)[*:2]].K.F.[am]}$$$$V2.0)
40 mg SC once daily, OCT, mITT, placebo 6.47% [0.737], P=0.0034
  LS mean change from baseline to week 48 for macular percentage of tEZa (EZ-RPE thickness of 0 μm): 3.69%
40 mg SC once daily, OCT, mITT, placebo 7.68% [0.969], P=0.0040
  LS mean change from baseline to week 48 for pEZa (EZ-RPE thickness ≤20 μm): 4.10%
40 mg SC once daily, week 48, mITT, placebo 0.275, P=0.34
  square root of GA area progression as measured by OCT: 0.312 mm
40 mg SC once daily, week 48, mITT, placebo 2.1%, P=0.0404
  patients experiencing a ≥2-line gain (≥10 letter) in LL BCVA: 14.6%
40 mg SC once daily, in words, versus placebo
  percentage of patients at week 48 experiencing a >1-line gain: higher compared to placebo
48-week trial, in words
  progression of GA area relative to the baseline boundary of total EZ attenuation: did not progress to the baseline boundary of total EZ attenuation
48 weeks, mITT, in words
  progression of partial EZ attenuation versus placebo: reduces partial EZ attenuation
  progression of total EZ attenuation versus placebo: significantly less progression of tEZa; also recorded: reduces total EZ attenuation
48 weeks, placebo arm 34%
  growth of partial EZ attenuation area during the trial: 15%
48 weeks, placebo arm 48%
  growth of total EZ attenuation area (mm^2) during the trial: 26%
[1]
  reduction in progression of partial EZ attenuation relative to placebo: 47%
  reduction in progression of total EZ attenuation relative to placebo: 43%
Elamipretide 40 mg SC once daily, week 48, mITT, study eye, placebo −4.4, P=0.49
  least squares (LS) mean change from baseline in LL BCVA: −3.0 letters
Elamipretide arm n=117, placebo 3 (5.1)
  Early discontinuation, reason: Withdrawal by subject: 20 (17.1) n (%)
Elamipretide arm n=117, placebo 4 (6.8)
  Early discontinuation, reason: Adverse event: 10 (8.5) n (%)
Elamipretide arm n=117, placebo 8 (13.6)
  Subjects leaving study early: 34 (29.1) n (%)
mITT n=76, baseline 2.63, placebo 0.99
  GA zonal lesion area, change from baseline at Week 48: 1.15 mm^2
Of 117 randomized to elamipretide [29%], placebo n=8
  patients who discontinued the study early: 34 patients
Of 117 randomized to elamipretide, placebo 4
  early discontinuation due to adverse events: 10 patients
Of 117 randomized to elamipretide, placebo n=3
  early discontinuation due to withdrawal by subject: 20 patients
Post hoc, percent attenuation x total macular area on OCT, mITT n=72, baseline 5.39, placebo 2.23, p = 0.04
  tEZa zonal lesion area, change from baseline at Week 48: 1.39 mm^2
Post hoc, percent attenuation x total macular area on OCT, mITT n=72, baseline 9.03, placebo 2.65, p = 0.01
  pEZa zonal lesion area, change from baseline at Week 48: 1.34 mm^2
post-hoc, total randomized population, baseline, 24 and 48 weeks, in words, versus placebo
  progression of the EZ-GA gap: slower rate of progression; also recorded: reduced progression of EZ-GA gap
post-hoc, week 48, in words
  treatment effect in LL BCVA versus placebo, subgroup with mean center 1 mm EZ-RPE thickness ≥10-micron: trended towards a treatment effect
Week 48, mITT, in words
  categorical improvement in LL BCVA (≥2-line gain) versus placebo: significantly more patients experiencing a ≥2-line gain; also recorded: categorical improvement in LL BCVA
